{"source": "the kinase profiling compilation of Christmann-Franck et al. (2016)", "experiment_in_all_cases": "radiometric filter-binding kinase assay, Kinaseprofiler", "key": {"[1]": {"target": "PRKCQ (human) (UniProt Q04759)", "sequence (Q04759 whole entry, looked up)": "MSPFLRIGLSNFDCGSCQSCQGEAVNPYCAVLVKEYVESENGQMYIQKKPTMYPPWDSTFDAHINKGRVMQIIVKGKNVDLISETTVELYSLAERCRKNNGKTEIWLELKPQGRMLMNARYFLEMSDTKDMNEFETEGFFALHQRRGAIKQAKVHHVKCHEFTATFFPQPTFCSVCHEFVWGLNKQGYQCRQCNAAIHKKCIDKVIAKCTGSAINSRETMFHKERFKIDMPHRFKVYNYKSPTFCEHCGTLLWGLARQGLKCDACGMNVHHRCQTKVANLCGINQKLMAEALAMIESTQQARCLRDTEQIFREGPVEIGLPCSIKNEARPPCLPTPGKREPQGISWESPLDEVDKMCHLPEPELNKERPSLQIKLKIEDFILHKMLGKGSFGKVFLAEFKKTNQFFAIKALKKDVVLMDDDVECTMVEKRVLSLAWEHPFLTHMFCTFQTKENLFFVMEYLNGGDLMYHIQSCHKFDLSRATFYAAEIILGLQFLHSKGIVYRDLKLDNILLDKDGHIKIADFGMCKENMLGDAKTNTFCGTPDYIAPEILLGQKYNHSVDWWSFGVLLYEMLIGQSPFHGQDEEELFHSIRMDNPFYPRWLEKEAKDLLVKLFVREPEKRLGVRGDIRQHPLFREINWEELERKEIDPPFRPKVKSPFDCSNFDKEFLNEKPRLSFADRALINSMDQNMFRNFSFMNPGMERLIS", "details": "ATP 15 µM"}, "[2]": {"target": "STK11 (human) (UniProt Q15831)", "details": "ATP 155 µM"}, "[3]": {"target": "EPHA1 (human) (UniProt P21709)", "details": "ATP 45 µM"}, "[4]": {"target": "PRKCB2 (human) (UniProt P05771)", "details": "ATP 10 µM"}, "[5]": {"target": "AURKB (human) (UniProt Q96GD4)", "details": "ATP 10 µM"}, "[6]": {"target": "IGF1R (human) (UniProt P08069)", "sequence (P08069 whole entry, looked up)": "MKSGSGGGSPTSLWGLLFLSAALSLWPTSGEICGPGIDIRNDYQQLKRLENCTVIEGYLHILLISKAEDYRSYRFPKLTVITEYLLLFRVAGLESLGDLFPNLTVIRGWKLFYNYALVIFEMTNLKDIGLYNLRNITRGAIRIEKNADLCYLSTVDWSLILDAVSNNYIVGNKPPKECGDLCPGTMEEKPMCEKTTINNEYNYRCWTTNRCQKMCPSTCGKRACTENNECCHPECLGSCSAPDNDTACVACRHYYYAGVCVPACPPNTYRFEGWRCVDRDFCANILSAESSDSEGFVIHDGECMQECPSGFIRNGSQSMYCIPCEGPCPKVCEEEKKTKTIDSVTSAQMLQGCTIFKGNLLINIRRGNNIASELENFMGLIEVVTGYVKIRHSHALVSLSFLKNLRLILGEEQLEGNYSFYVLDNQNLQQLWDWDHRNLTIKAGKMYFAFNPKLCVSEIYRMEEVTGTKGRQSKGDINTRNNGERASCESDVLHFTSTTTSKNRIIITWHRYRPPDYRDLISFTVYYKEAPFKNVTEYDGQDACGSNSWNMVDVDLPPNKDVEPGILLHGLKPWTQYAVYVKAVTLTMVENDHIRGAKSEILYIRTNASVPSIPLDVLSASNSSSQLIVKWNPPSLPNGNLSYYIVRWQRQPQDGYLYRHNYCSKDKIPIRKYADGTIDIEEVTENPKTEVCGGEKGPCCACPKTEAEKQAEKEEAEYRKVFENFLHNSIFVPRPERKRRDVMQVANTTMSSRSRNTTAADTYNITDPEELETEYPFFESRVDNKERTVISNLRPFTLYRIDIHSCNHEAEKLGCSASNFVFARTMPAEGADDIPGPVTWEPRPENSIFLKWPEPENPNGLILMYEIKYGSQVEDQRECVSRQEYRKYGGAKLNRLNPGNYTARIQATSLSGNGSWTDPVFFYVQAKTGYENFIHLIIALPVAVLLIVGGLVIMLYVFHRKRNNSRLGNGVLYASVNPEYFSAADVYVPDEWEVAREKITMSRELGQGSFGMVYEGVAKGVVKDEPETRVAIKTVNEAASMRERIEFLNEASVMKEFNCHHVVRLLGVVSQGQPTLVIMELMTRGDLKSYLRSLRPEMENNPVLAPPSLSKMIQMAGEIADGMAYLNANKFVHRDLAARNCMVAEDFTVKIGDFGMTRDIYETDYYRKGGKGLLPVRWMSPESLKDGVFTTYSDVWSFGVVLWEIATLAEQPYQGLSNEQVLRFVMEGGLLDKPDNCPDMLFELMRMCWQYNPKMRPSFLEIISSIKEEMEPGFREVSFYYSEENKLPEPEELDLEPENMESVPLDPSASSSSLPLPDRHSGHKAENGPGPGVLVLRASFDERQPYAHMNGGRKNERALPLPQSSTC"}, "[7]": {"target": "MUSK (human) (UniProt O15146)", "details": "ATP 155 µM"}, "[8]": {"target": "DAPK2 (human) (UniProt Q9UIK4)", "details": "ATP 10 µM"}, "[9]": {"target": "CDC42BPB (human) (UniProt Q9Y5S2)", "details": "ATP 10 µM"}, "[10]": {"target": "RPS6KA1 KD1 KD2 (human) (UniProt Q15418)", "details": "ATP 45 µM"}, "[11]": {"target": "IKBKB (human) (UniProt O14920)", "details": "ATP 10 µM"}, "[12]": {"system": "RPS6KB1 (human), P23443 [T412E]", "details": "ATP 15 µM"}, "[13]": {"target": "FGFR3 (human) (UniProt P22607)", "details": "ATP 15 µM"}, "[14]": {"target": "RIPK2 (human) (UniProt O43353)", "details": "ATP 120 µM"}, "[15]": {"target": "FGR (human) (UniProt P09769)", "sequence (P09769 whole entry, looked up)": "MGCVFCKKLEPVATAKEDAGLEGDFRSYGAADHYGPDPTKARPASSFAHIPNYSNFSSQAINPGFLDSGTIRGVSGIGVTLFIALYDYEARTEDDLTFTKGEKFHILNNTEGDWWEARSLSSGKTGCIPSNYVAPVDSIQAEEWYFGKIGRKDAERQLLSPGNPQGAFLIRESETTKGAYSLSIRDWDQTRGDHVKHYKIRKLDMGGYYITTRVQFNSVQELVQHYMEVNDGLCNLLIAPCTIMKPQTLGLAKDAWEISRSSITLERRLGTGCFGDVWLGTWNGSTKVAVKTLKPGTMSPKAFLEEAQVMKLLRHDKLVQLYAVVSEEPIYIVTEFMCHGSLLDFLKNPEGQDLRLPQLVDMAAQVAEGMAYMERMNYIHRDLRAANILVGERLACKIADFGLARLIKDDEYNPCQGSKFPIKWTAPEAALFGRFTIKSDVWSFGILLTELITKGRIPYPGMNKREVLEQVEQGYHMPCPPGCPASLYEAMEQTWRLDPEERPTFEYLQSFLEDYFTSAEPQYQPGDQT", "details": "ATP 45 µM"}, "[16]": {"target": "PIM2 (human) (UniProt Q9P1W9)", "details": "ATP 15 µM"}, "[17]": {"target": "MAP2K6 (human) (UniProt P52564)", "details": "ATP 10 µM"}, "[18]": {"target": "SYK (human) (UniProt P43405)", "details": "ATP 15 µM"}, "[19]": {"target": "GRK5 (human) (UniProt P34947)", "details": "ATP 15 µM"}, "[20]": {"target": "HCK (human) (UniProt P08631)", "sequence (P08631 whole entry, looked up)": "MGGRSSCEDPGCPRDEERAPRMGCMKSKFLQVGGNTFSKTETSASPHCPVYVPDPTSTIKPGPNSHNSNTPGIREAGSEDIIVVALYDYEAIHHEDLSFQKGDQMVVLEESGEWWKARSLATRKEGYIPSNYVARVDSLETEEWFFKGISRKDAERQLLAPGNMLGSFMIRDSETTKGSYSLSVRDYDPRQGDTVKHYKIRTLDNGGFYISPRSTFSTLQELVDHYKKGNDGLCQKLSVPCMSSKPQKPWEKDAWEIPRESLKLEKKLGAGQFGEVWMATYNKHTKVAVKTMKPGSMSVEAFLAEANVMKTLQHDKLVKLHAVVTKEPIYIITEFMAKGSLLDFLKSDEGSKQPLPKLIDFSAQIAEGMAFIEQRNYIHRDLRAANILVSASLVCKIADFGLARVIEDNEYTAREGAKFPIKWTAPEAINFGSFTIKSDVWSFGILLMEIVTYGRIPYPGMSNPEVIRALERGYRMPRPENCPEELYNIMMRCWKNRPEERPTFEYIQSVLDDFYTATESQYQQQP"}, "[21]": {"target": "CAMK2G (human) (UniProt Q13555)", "details": "ATP 10 µM"}, "[22]": {"target": "MAPK1 (human) (UniProt P28482)", "details": "ATP 155 µM"}, "[23]": {"target": "PASK (human) (UniProt Q96RG2)", "details": "ATP 15 µM"}, "[24]": {"target": "RPS6KA6 KD1 KD2 (human) (UniProt Q9UK32)", "details": "ATP 45 µM"}, "[25]": {"target": "FYN (human) (UniProt P06241)", "sequence (P06241 whole entry, looked up)": "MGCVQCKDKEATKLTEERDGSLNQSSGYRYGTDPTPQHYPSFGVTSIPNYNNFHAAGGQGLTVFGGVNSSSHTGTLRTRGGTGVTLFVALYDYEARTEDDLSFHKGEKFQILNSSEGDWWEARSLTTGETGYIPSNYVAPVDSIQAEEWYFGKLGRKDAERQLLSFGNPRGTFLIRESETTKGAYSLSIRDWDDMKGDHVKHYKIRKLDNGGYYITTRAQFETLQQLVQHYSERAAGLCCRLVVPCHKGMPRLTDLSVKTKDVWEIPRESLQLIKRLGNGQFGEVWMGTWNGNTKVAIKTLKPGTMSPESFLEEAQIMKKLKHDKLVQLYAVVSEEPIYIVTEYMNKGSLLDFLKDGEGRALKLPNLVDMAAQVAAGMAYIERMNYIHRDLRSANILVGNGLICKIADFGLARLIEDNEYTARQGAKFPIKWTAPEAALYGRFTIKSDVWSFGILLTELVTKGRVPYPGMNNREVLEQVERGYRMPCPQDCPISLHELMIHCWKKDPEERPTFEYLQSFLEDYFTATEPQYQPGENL", "details": "ATP 70 µM"}, "[26]": {"target": "TAOK1 (human) (UniProt Q7L7X3)", "details": "ATP 10 µM"}, "[27]": {"target": "CDC42BPA (human) (UniProt Q5VT25)", "details": "ATP 45 µM"}, "[28]": {"target": "SRPK3 (human) (UniProt Q9UPE1)", "sequence (Q9UPE1 whole entry, looked up)": "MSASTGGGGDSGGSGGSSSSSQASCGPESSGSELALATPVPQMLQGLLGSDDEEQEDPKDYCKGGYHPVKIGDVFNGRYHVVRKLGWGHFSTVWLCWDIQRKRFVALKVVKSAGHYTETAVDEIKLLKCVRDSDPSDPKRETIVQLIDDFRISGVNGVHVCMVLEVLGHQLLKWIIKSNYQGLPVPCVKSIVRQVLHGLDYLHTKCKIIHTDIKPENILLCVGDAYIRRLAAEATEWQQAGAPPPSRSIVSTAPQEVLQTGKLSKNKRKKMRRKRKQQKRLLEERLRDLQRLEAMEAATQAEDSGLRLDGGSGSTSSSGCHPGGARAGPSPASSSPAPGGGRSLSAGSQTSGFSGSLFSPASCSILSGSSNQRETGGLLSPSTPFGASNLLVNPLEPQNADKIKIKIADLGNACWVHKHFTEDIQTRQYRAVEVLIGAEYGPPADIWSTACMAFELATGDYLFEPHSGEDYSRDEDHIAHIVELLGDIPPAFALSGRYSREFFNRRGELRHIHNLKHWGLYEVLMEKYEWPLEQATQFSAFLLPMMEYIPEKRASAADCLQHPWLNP", "details": "ATP 15 µM"}, "[29]": {"target": "PDGFRA (human) (UniProt P16234)", "details": "ATP 120 µM"}, "[30]": {"target": "PAK6 (human) (UniProt Q9NQU5)", "sequence (Q9NQU5 whole entry, looked up)": "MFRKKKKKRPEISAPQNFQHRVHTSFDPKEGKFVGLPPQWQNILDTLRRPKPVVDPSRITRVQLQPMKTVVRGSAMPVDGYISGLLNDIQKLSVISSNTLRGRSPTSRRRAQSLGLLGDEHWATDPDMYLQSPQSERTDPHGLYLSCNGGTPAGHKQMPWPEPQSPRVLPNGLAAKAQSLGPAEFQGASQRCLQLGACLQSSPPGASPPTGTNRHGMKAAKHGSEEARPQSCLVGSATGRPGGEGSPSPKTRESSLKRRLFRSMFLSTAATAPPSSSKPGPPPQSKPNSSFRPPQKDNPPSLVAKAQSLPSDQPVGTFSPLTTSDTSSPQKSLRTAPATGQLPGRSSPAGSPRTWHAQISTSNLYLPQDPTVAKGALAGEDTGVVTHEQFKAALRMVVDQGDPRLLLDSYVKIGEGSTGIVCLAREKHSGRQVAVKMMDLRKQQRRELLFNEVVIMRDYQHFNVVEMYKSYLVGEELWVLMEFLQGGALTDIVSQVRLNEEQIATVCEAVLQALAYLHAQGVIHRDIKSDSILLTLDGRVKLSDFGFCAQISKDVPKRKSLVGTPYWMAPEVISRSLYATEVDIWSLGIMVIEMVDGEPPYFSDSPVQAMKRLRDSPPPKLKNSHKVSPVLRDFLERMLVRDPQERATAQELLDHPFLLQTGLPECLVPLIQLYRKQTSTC", "details": "ATP 10 µM"}, "[31]": {"target": "MAPK11 (human) (UniProt Q15759)", "details": "ATP 45 µM"}, "[32]": {"target": "MAP3K7 (human) (UniProt O43318)", "details": "ATP 45 µM"}}}
{"smiles": "O=C1Nc2ccccc2/C1=C1\\Nc2ccccc2\\C1=N/O", "values": [{"measurement": "residual activity", "setting": "[1]; compound 1.0 µM", "result": 81, "unit": "%"}, {"measurement": "residual activity", "setting": "[1]; compound 10.0 µM", "result": 55, "unit": "%"}, {"measurement": "residual activity", "setting": "[2]; compound 1.0 µM", "result": 83, "unit": "%"}, {"measurement": "residual activity", "setting": "[2]; compound 10.0 µM", "result": 44, "unit": "%"}, {"measurement": "residual activity", "setting": "[3]; compound 1.0 µM", "result": 55, "unit": "%"}, {"measurement": "residual activity", "setting": "[3]; compound 10.0 µM", "result": 61, "unit": "%"}, {"measurement": "residual activity", "setting": "[4]; compound 1.0 µM", "result": 95, "unit": "%"}, {"measurement": "residual activity", "setting": "[4]; compound 10.0 µM", "result": 102, "unit": "%"}, {"measurement": "residual activity", "setting": "[5]; compound 1.0 µM", "result": 1, "unit": "%"}, {"measurement": "residual activity", "setting": "[5]; compound 10.0 µM", "result": -2, "unit": "%"}, {"measurement": "residual activity", "setting": "[6]; compound 1.0 µM, ATP 45 µM", "result": 40, "unit": "%"}, {"measurement": "residual activity", "setting": "[6]; compound 1.0 µM, ATP 200 µM", "result": 37, "unit": "%"}, {"measurement": "residual activity", "setting": "[6]; compound 10.0 µM, ATP 45 µM", "result": 20, "unit": "%"}, {"measurement": "residual activity", "setting": "[6]; compound 10.0 µM, ATP 200 µM", "result": 26, "unit": "%"}, {"measurement": "residual activity", "setting": "[7]; compound 1.0 µM", "result": 58, "unit": "%"}, {"measurement": "residual activity", "setting": "[7]; compound 10.0 µM", "result": 5, "unit": "%"}, {"measurement": "residual activity", "setting": "[8]; compound 1.0 µM", "result": 73, "unit": "%"}, {"measurement": "residual activity", "setting": "[8]; compound 10.0 µM", "result": 23, "unit": "%"}, {"measurement": "residual activity", "setting": "[9]; compound 1.0 µM", "result": 106, "unit": "%"}, {"measurement": "residual activity", "setting": "[9]; compound 10.0 µM", "result": 103, "unit": "%"}, {"measurement": "residual activity", "setting": "[10]; compound 1.0 µM", "result": 40, "unit": "%"}, {"measurement": "residual activity", "setting": "[10]; compound 10.0 µM", "result": 6, "unit": "%"}, {"measurement": "residual activity", "setting": "[11]; compound 1.0 µM", "result": 87, "unit": "%"}, {"measurement": "residual activity", "setting": "[11]; compound 10.0 µM", "result": 67, "unit": "%"}, {"measurement": "residual activity", "setting": "[12]; compound 1.0 µM", "result": 37, "unit": "%"}, {"measurement": "residual activity", "setting": "[12]; compound 10.0 µM", "result": 13, "unit": "%"}, {"measurement": "residual activity", "setting": "[13]; compound 1.0 µM", "result": 20, "unit": "%"}, {"measurement": "residual activity", "setting": "[13]; compound 10.0 µM", "result": 2, "unit": "%"}, {"measurement": "residual activity", "setting": "[14]; compound 1.0 µM", "result": 60, "unit": "%"}, {"measurement": "residual activity", "setting": "[14]; compound 10.0 µM", "result": 27, "unit": "%"}, {"measurement": "residual activity", "setting": "[15]; compound 1.0 µM", "result": 8, "unit": "%"}, {"measurement": "residual activity", "setting": "[15]; compound 10.0 µM", "result": 1, "unit": "%"}, {"measurement": "residual activity", "setting": "[16]; compound 1.0 µM", "result": 68, "unit": "%"}, {"measurement": "residual activity", "setting": "[16]; compound 10.0 µM", "result": 38, "unit": "%"}, {"measurement": "residual activity", "setting": "[17]; compound 1.0 µM", "result": 63, "unit": "%"}, {"measurement": "residual activity", "setting": "[17]; compound 10.0 µM", "result": 40, "unit": "%"}, {"measurement": "residual activity", "setting": "[18]; compound 1.0 µM", "result": 49, "unit": "%"}, {"measurement": "residual activity", "setting": "[18]; compound 10.0 µM", "result": 60, "unit": "%"}, {"measurement": "residual activity", "setting": "[19]; compound 1.0 µM", "result": 92, "unit": "%"}, {"measurement": "residual activity", "setting": "[19]; compound 10.0 µM", "result": 58, "unit": "%"}, {"measurement": "residual activity", "setting": "[20]; compound 1.0 µM, ATP 45 µM", "result": 8, "unit": "%"}, {"measurement": "residual activity", "setting": "[20]; compound 1.0 µM, ATP 70 µM", "result": 15, "unit": "%"}, {"measurement": "residual activity", "setting": "[20]; compound 10.0 µM, ATP 45 µM", "result": 1, "unit": "%"}, {"measurement": "residual activity", "setting": "[20]; compound 10.0 µM, ATP 70 µM", "result": 5, "unit": "%"}, {"measurement": "residual activity", "setting": "[21]; compound 1.0 µM", "result": 12, "unit": "%"}, {"measurement": "residual activity", "setting": "[21]; compound 10.0 µM", "result": 1, "unit": "%"}, {"measurement": "residual activity", "setting": "[22]; compound 1.0 µM", "result": 104, "unit": "%"}, {"measurement": "residual activity", "setting": "[22]; compound 10.0 µM", "result": 103, "unit": "%"}, {"measurement": "residual activity", "setting": "[23]; compound 1.0 µM", "result": 112, "unit": "%"}, {"measurement": "residual activity", "setting": "[23]; compound 10.0 µM", "result": 76, "unit": "%"}, {"measurement": "residual activity", "setting": "[24]; compound 1.0 µM", "result": 20, "unit": "%"}, {"measurement": "residual activity", "setting": "[24]; compound 10.0 µM", "result": 12, "unit": "%"}, {"measurement": "residual activity", "setting": "[25]; compound 1.0 µM", "result": 5, "unit": "%"}, {"measurement": "residual activity", "setting": "[25]; compound 10.0 µM", "result": 0, "unit": "%"}, {"measurement": "residual activity", "setting": "[26]; compound 1.0 µM", "result": 83, "unit": "%"}, {"measurement": "residual activity", "setting": "[26]; compound 10.0 µM", "result": 39, "unit": "%"}, {"measurement": "residual activity", "setting": "[27]; compound 1.0 µM", "result": 142, "unit": "%"}, {"measurement": "residual activity", "setting": "[27]; compound 10.0 µM", "result": 135, "unit": "%"}, {"measurement": "residual activity", "setting": "[28]; compound 1.0 µM", "result": 85, "unit": "%"}, {"measurement": "residual activity", "setting": "[28]; compound 10.0 µM", "result": 46, "unit": "%"}, {"measurement": "residual activity", "setting": "[29]; compound 1.0 µM", "result": 87, "unit": "%"}, {"measurement": "residual activity", "setting": "[29]; compound 10.0 µM", "result": 37, "unit": "%"}, {"measurement": "residual activity", "setting": "[30]; compound 1.0 µM", "result": 63, "unit": "%"}, {"measurement": "residual activity", "setting": "[30]; compound 10.0 µM", "result": 37, "unit": "%"}, {"measurement": "residual activity", "setting": "[31]; compound 1.0 µM", "result": 101, "unit": "%"}, {"measurement": "residual activity", "setting": "[31]; compound 10.0 µM", "result": 90, "unit": "%"}, {"measurement": "residual activity", "setting": "[32]; compound 1.0 µM", "result": 64, "unit": "%"}, {"measurement": "residual activity", "setting": "[32]; compound 10.0 µM", "result": 71, "unit": "%"}]}
